Data as given in article PMC12406255, “Engineering Peptide Modulators for T‑Cell Migration by Structural Scaffold Matching” (Journal of Medicinal Chemistry, 2025).
Positions of bridges follow the written chain, without caps; N, C: chain ends. Non-standard residues stand in square brackets, D forms with d. Residues, ends and D or L forms follow the SMILES beside them. Nle = CCCC[C@H](N)C(=O)O

Legend:
[1] = Serum stability assay; format: in vitro ADME; conditions: human serum of healthy donors, lipids removed by centrifugation, 37 °C, peptide 30-60 μM from 10-fold stock in PBS, followed over 48 h, urea/TFA quench, analytical RP-HPLC peak area vs time 0, one-phase decay fit; mean ± SD, n = 2 (pepitem n = 5); read-out: Serum t 1/2 (converted)
Procedure: Stability of peptides in human serum was measured similarly to that previously described. In short, fresh blood from healthy donors was collected in serum collection tubes (Clot Activator Tube, Becton Dickinson, Plymouth, United Kingdom, […]) and incubated at 4 °C for 2 h to allow blood clotting. The serum was separated by centrifugation at 1000 × g for 10 min. To remove lipids from the serum, an additional centrifugation step was performed at 15,000 × g for 15 min at 4 °C, after which the serum was used for the stability assays. For this, the serum was prewarmed for 10 min at 37 °C before the addition of the test compounds. Peptides were prepared at a 10-fold concentration in PBS and diluted to a final concentration between 60 and 30 μM with the serum. The serum-peptide reaction mix was incubated at 37 °C, and 40 μL aliquots were taken at the indicated time points. To stop the reaction, samples were mixed with 40 μL of 6 M urea for 10 min on ice, followed by precipitation of serum proteins by the addition of 40 μL of 20% TFA and incubation for at least 10 min on ice. The precipitate was pelleted at 15,000 × g for 15 min, and 90 μL of the supernatant was freeze-dried. The dry material was resuspended in HPLC solvent A (0.1% TFA in ddH2O). Peptide quantification was performed using analytical HPLC. The remaining peptide relative to the starting point (time point 0) was calculated by peak integration to determine the area under the peak at the designated time points and further calculated in comparison to time point 0 min, which was set as 100%. To calculate the half-life of the peptides in human serum, data points were fitted with a one-phase decay equation.

[2] = test system: Th1 lymphocytes (CD3+, CD4+, CXCR3+, CCR6-) of MS patients; assay: Transwell migration assay with PBMC of MS patients, Th1 cells; format: cell-based, human; conditions: PBMC of treatment-naive MS patients; mean ± SD, 4 independent measurements; p = 0.048
Procedure: (§1) 5 Activity of the novel VhTI-pep 2 and pepitem on patient lymphocytes. PPBMCs were isolated from the blood of MS patients with a very recent disease flare receiving no immunosuppressive or immunomodulatory treatment in the past. The effect of the linear pepitem and VhTI-pep 2 was tested for the T-cell populations (A) CD3^+, (B) Th1, (C) CD4^+, (D) memory CD4^+, (E) CD8^+, and (F) memory CD8^+ cells. Data are shown as mean ± SD for 4 independent measurements. Statistical analysis was performed on the level of total counted cells using repeated measures one-way ANOVA with Dunnett’s post hoc test. Statistical significance is indicated as n.s. (not significant), * p < 0.05; ** p < 0.01; *** p < 0.001.
(§2) Human microvascular endothelial cells (HMEC-1 cells, Cytion, Eppelheim, Germany) were cultured in MCDB-131 medium (with 2.2 g/L sodium bicarbonate, without L-glutamine, PAN-Biotech Aidenbach, Germany) supplemented with 10% fetal bovine serum (FBS, Capricorn Scientific, Ebsdorfergrund, Germany), 100 units/ml penicillin-streptomycin (Sigma-Aldrich) 10 ng/mL epidermal growth factor (BioLegend, San Diego, US), 1 μg/mL hydrocortisone (Sigma-Aldrich), and 10 mM L-glutamine (Sigma-Aldrich). For experiments, the cells were used between passage numbers 4–9. […]

[3] = test system: CD4+ cells of MS patients; assay: Transwell migration assay with PBMC of MS patients, CD4+ cells; format: cell-based, human; conditions: PBMC of treatment-naive MS patients; p = 0.0005
Procedure: as §1, §2

[4] = test system: CD8+ cells of MS patients; assay: Transwell migration assay with PBMC of MS patients, CD8+ cells; format: cell-based, human; conditions: PBMC of treatment-naive MS patients; too few cells to test significance
Procedure: as §1, §2

CCCC[C@@H]1NC(=O)[C@H](C(C)C)NC(=O)[C@H](CCCCN)NC(=O)[C@@H](NC(=O)[C@H](CCC(N)=O)NC(=O)[C@H](CCC(=O)O)NC(C)=O)CSSC[C@@H](C(=O)N[C@@H](CCC(=O)O)C(=O)N[C@@H](CCCCN)C(N)=O)NC(=O)[C@H](CC(N)=O)NC(=O)[C@H](CC(=O)O)NC(=O)[C@H](CC(C)C)NC(=O)[C@@H]2CSSC[C@H](NC1=O)C(=O)N[C@@H](Cc1ccc(O)cc1)C(=O)N[C@@H](C)C(=O)N[C@@H](CCC(N)=O)C(=O)NCC(=O)N[C@@H](C)C(=O)N[C@@H](CCC(=O)O)C(=O)N[C@@H](CC(C)C)C(=O)N1CCC[C@H]1C(=O)N[C@@H](CCC(=O)O)C(=O)N[C@@H](CC(C)C)C(=O)N[C@@H](CC(C)C)C(=O)N[C@@H](CCCNC(=N)N)C(=O)N[C@@H](CCCNC(=N)N)C(=O)N2 [VhTI-pep 2] (Ac-EQCKV[Nle]CYAQGAELPELLRRCLDNCEK-NH2; disulfide 3-25, 7-21)
half-life [1]: > 48 h | inhibition of migration of Th1 lymphocytes [2]: 34.3 ± 11.4% | migration of CD4+ cells of MS patients (in words) [3]: significantly reduced | migration of CD8+ cells of MS patients (in words) [4]: positive trend
